# Experiments:
# Format in all cases: in vivo, human
# [1] = tested on: adult subjects with major depressive disorder (MDD); assay: Phase 2 placebo-controlled study in MDD, Clinical Global Impression-Severity (CGI-S) total score; details: mITT; for Change from Baseline, CGI-S Total at Week 1, LSM Difference (95% CI) / Change from Baseline, CGI-S Total at Week 2, LSM Difference (95% CI) / Change from Baseline, CGI-S Total at Week 3, LSM Difference (95% CI) / Change from Baseline, CGI-S Total at Week 4, LSM Difference (95% CI): 20 mg/day vs Placebo; for CGI-S Total at Week 1, Mean (SD) / CGI-S Total at Week 1, Median / CGI-S Total at Week 2, Mean (SD) / CGI-S Total at Week 2, Median / CGI-S Total at Week 3, Mean (SD) / CGI-S Total at Week 3, Median / CGI-S Total at Week 4, Mean (SD) / CGI-S Total at Week 4, Median / Change from Baseline, CGI-S Total at Week 1, Mean (SD) / Change from Baseline, CGI-S Total at Week 1, Median / Change from Baseline, CGI-S Total at Week 2, Mean (SD) / Change from Baseline, CGI-S Total at Week 2, Median / Change from Baseline, CGI-S Total at Week 3, Mean (SD) / Change from Baseline, CGI-S Total at Week 3, Median / Change from Baseline, CGI-S Total at Week 4, Mean (SD) / Change from Baseline, CGI-S Total at Week 4, Median: 20 mg/day
# Procedure: (§1) A Phase 2, multicenter, double-blind, randomized, placebo-controlled study of the safety and efficacy of SP-624 in the treatment of adult subjects with major depressive disorder (MDD) as defined by the Diagnostic and Statistical Manual of Mental Disorders, Fifth Edition (DSM-5) was carried out. Following the successful completion of a Screening Phase, subjects were randomized to one of two treatment groups in a 1:1 ratio and received Compound 1 (SP-624) or placebo over a treatment period of four weeks (Treatment Group #1: SP-624 20 mg/day; Treatment Group #2: Placebo).
# (§2) Prior to initiating the 4-week treatment period, subjects completed a Screening/Baseline period of up to 28 days, during which time all screening assessments were performed, and any current depression medications discontinued. All screening assessments were completed before discontinuing any current depression medications. Subjects returned for a Baseline Visit to complete efficacy and safety assessments. During the treatment period, subjects returned to the investigative site to complete efficacy and safety assessments at the end of Weeks 1, 2, 3, and 4. After the final dose of study drug, subjects completed a follow-up period of two weeks and returned at the end of Weeks 5 and 6. Subjects may be treated with anti-depressant medications according to physician recommendations after completion of the Week 5 Visit.
# (§3) Each dose of Compound 1 was supplied as two capsules, each containing 10 mg of active pharmaceutical ingredient (API). Matching placebo capsules identical in shape and color to the active capsules were used.
# (§4) Secondary efficacy endpoints included: • Change from Baseline to Weeks 1, 2, and 3 in MADRS total score, • Change from Baseline to Weeks 1, 2, 3, and 4 in Clinical Global Impression-Severity (CGI-S) total score, • Change from Baseline to Week 5 and change from Week 4 to Week 5 in MADRS total score and CGI-S total score, • Change from Baseline to Week 2 and Week 4 in the 17-item Hamilton Depression Rating Scale (HAM D-17) total score, • Change from Baseline to Week 2 and Week 4 in the Sheehan Disability Scale (SDS), • Change from Baseline to Week 2 and Week 4 in the Quick Inventory of Depressive Symptomology-Self Report (QIDS-SR), and • Change from Baseline to Week 2 and Week 4 in the Quality of Life Enjoyment and Satisfaction Questionnaire-Short Form (Q-LES-Q-SF).
# [2] = tested on: adult subjects with major depressive disorder (MDD); assay: Phase 2 placebo-controlled study in MDD, Quick Inventory of Depressive Symptomology-Self Report (QIDS-SR); details: mITT; for Change from Baseline, QIDS Total at Week 2, LSM Difference (95% CI) / Change from Baseline, QIDS Total at Week 4, LSM Difference (95% CI): 20 mg/day vs Placebo; for Change from Baseline, QIDS Total at Week 2, Mean (SD) / Change from Baseline, QIDS Total at Week 2, Median / Change from Baseline, QIDS Total at Week 4, Mean (SD) / Change from Baseline, QIDS Total at Week 4, Median / QIDS Total at Week 2, Mean (SD) / QIDS Total at Week 2, Median / QIDS Total at Week 4, Mean (SD) / QIDS Total at Week 4, Median: 20 mg/day
# Procedure: as §1, §2, §3, §4
# [3] = tested on: adult subjects with major depressive disorder (MDD); assay: Phase 2 placebo-controlled study in MDD, Quality of Life Enjoyment and Satisfaction Questionnaire-Short Form (Q-LES-Q-SF); details: mITT; for Change from Baseline, Q-LES-Q-SF Total at Week 2, LSM Difference (95% CI) / Change from Baseline, Q-LES-Q-SF Total at Week 4, LSM Difference (95% CI): 20 mg/day vs Placebo; for Change from Baseline, Q-LES-Q-SF Total at Week 2, Mean (SD) / Change from Baseline, Q-LES-Q-SF Total at Week 2, Median / Change from Baseline, Q-LES-Q-SF Total at Week 4, Mean (SD) / Change from Baseline, Q-LES-Q-SF Total at Week 4, Median / Q-LES-Q-SF Total at Week 2, Mean (SD) / Q-LES-Q-SF Total at Week 2, Median / Q-LES-Q-SF Total at Week 4, Mean (SD) / Q-LES-Q-SF Total at Week 4, Median: 20 mg/day
# Procedure: as §1, §2, §3, §4
smiles,measurement,setting,value
"COC1=CC(=O)C[C@@H](C)[C@]12Oc1c(Cl)c(-c3nnc(C)o3)cc(OC)c1C2=O [SP-624, (2S,6′R)-7-Chloro-2′,4-dimethoxy-6′-methyl-6-(5-methyl-1,3,4-oxadiazol-2-yl)-3H-spiro[1-benzofuran-2,1′-cyclohex [2]ene]-3,4′-dione]","Change from Baseline, CGI-S Total at Week 1, LSM Difference (95% CI)",[1]; Female,"−0.1 (−0.3, 0.1)"
same,"Change from Baseline, CGI-S Total at Week 2, LSM Difference (95% CI)",[1]; Female,"−0.3 (−0.5, 0.0)"
same,"Change from Baseline, CGI-S Total at Week 3, LSM Difference (95% CI)",[1]; Female,"−0.4 (−0.7, −0.1)"
same,"Change from Baseline, CGI-S Total at Week 4, LSM Difference (95% CI)",[1]; Female,"−0.5 (−0.8, −0.1)"
same,"CGI-S Total at Week 1, Mean (SD)",[1]; Female,4.0 (0.89)
same,"CGI-S Total at Week 1, Median",[1]; Female,4
same,"CGI-S Total at Week 2, Mean (SD)",[1]; Female,3.6 (0.97)
same,"CGI-S Total at Week 2, Median",[1]; Female,4
same,"CGI-S Total at Week 3, Mean (SD)",[1]; Female,3.4 (1.15)
same,"CGI-S Total at Week 3, Median",[1]; Female,4
same,"CGI-S Total at Week 4, Mean (SD)",[1]; Female,3.3 (1.20)
same,"CGI-S Total at Week 4, Median",[1]; Female,3
same,"Change from Baseline, CGI-S Total at Week 1, Mean (SD)",[1]; Female,−0.5 (0.80)
same,"Change from Baseline, CGI-S Total at Week 1, Median",[1]; Female,0
same,"Change from Baseline, CGI-S Total at Week 2, Mean (SD)",[1]; Female,−0.8 (0.96)
same,"Change from Baseline, CGI-S Total at Week 2, Median",[1]; Female,−1
same,"Change from Baseline, CGI-S Total at Week 3, Mean (SD)",[1]; Female,−1.1 (1.13)
same,"Change from Baseline, CGI-S Total at Week 3, Median",[1]; Female,−1
same,"Change from Baseline, CGI-S Total at Week 4, Mean (SD)",[1]; Female,−1.2 (1.14)
same,"Change from Baseline, CGI-S Total at Week 4, Median",[1]; Female,−1
same,"Change from Baseline, CGI-S Total at Week 1, LSM Difference (95% CI)",[1]; Male,"0.0 (−0.5, 0.4)"
same,"Change from Baseline, CGI-S Total at Week 2, LSM Difference (95% CI)",[1]; Male,"−0.1 (−0.5, 0.3)"
same,"Change from Baseline, CGI-S Total at Week 3, LSM Difference (95% CI)",[1]; Male,"0.0 (−0.4, 0.4)"
same,"Change from Baseline, CGI-S Total at Week 4, LSM Difference (95% CI)",[1]; Male,"0.2 (−0.3, 0.6)"
same,"CGI-S Total at Week 1, Mean (SD)",[1]; Male,3.9 (0.84)
same,"CGI-S Total at Week 1, Median",[1]; Male,4
same,"CGI-S Total at Week 2, Mean (SD)",[1]; Male,3.5 (1.18)
same,"CGI-S Total at Week 2, Median",[1]; Male,4
same,"CGI-S Total at Week 3, Mean (SD)",[1]; Male,3.4 (1.15)
same,"CGI-S Total at Week 3, Median",[1]; Male,4
same,"CGI-S Total at Week 4, Mean (SD)",[1]; Male,3.4 (1.27)
same,"CGI-S Total at Week 4, Median",[1]; Male,4
same,"Change from Baseline, CGI-S Total at Week 1, Mean (SD)",[1]; Male,−0.5 (0.85)
same,"Change from Baseline, CGI-S Total at Week 1, Median",[1]; Male,0
same,"Change from Baseline, CGI-S Total at Week 2, Mean (SD)",[1]; Male,−0.9 (1.16)
same,"Change from Baseline, CGI-S Total at Week 2, Median",[1]; Male,−1
same,"Change from Baseline, CGI-S Total at Week 3, Mean (SD)",[1]; Male,−1.0 (1.16)
same,"Change from Baseline, CGI-S Total at Week 3, Median",[1]; Male,−1
same,"Change from Baseline, CGI-S Total at Week 4, Mean (SD)",[1]; Male,−1.0 (1.27)
same,"Change from Baseline, CGI-S Total at Week 4, Median",[1]; Male,−1
same,"Change from Baseline, QIDS Total at Week 2, LSM Difference (95% CI)",[2]; Female,"−1.1 (−2.4, 0.3)"
same,"Change from Baseline, QIDS Total at Week 4, LSM Difference (95% CI)",[2]; Female,"−2.0 (−3.3, −0.6)"
same,"Change from Baseline, QIDS Total at Week 2, Mean (SD)",[2]; Female,−3.9 (4.37)
same,"Change from Baseline, QIDS Total at Week 2, Median",[2]; Female,−3
same,"Change from Baseline, QIDS Total at Week 4, Mean (SD)",[2]; Female,−5.7 (4.76)
same,"Change from Baseline, QIDS Total at Week 4, Median",[2]; Female,−5
same,"QIDS Total at Week 2, Mean (SD)",[2]; Female,11.7 (4.87)
same,"QIDS Total at Week 2, Median",[2]; Female,12
same,"QIDS Total at Week 4, Mean (SD)",[2]; Female,10.2 (4.69)
same,"QIDS Total at Week 4, Median",[2]; Female,10
same,"Change from Baseline, QIDS Total at Week 2, LSM Difference (95% CI)",[2]; Male,"1.2 (−0.9, 3.2)"
same,"Change from Baseline, QIDS Total at Week 4, LSM Difference (95% CI)",[2]; Male,"1.1 (−0.8, 3.0)"
same,"Change from Baseline, QIDS Total at Week 2, Mean (SD)",[2]; Male,−2.1 (5.50)
same,"Change from Baseline, QIDS Total at Week 2, Median",[2]; Male,−2
same,"Change from Baseline, QIDS Total at Week 4, Mean (SD)",[2]; Male,−3.3 (4.46)
same,"Change from Baseline, QIDS Total at Week 4, Median",[2]; Male,−4
same,"QIDS Total at Week 2, Mean (SD)",[2]; Male,11.7 (5.27)
same,"QIDS Total at Week 2, Median",[2]; Male,12
same,"QIDS Total at Week 4, Mean (SD)",[2]; Male,10.4 (4.55)
same,"QIDS Total at Week 4, Median",[2]; Male,11
same,"Change from Baseline, Q-LES-Q-SF Total at Week 2, LSM Difference (95% CI)",[3]; Female,"1.1 (−1.8, 3.9)"
same,"Change from Baseline, Q-LES-Q-SF Total at Week 4, LSM Difference (95% CI)",[3]; Female,"3.3 (−0.3, 6.8)"
same,"Change from Baseline, Q-LES-Q-SF Total at Week 2, Mean (SD)",[3]; Female,7.8 (10.32)
same,"Change from Baseline, Q-LES-Q-SF Total at Week 2, Median",[3]; Female,6
same,"Change from Baseline, Q-LES-Q-SF Total at Week 4, Mean (SD)",[3]; Female,11.4 (14.11)
same,"Change from Baseline, Q-LES-Q-SF Total at Week 4, Median",[3]; Female,10
same,"Q-LES-Q-SF Total at Week 2, Mean (SD)",[3]; Female,59.2 (11.32)
same,"Q-LES-Q-SF Total at Week 2, Median",[3]; Female,59
same,"Q-LES-Q-SF Total at Week 4, Mean (SD)",[3]; Female,62.1 (13.87)
same,"Q-LES-Q-SF Total at Week 4, Median",[3]; Female,59
same,"Change from Baseline, Q-LES-Q-SF Total at Week 2, LSM Difference (95% CI)",[3]; Male,"−2.2 (−6.7, 2.3)"
same,"Change from Baseline, Q-LES-Q-SF Total at Week 4, LSM Difference (95% CI)",[3]; Male,"−1.3 (−6.4, 3.7)"
same,"Change from Baseline, Q-LES-Q-SF Total at Week 2, Mean (SD)",[3]; Male,5.5 (10.39)
same,"Change from Baseline, Q-LES-Q-SF Total at Week 2, Median",[3]; Male,4
same,"Change from Baseline, Q-LES-Q-SF Total at Week 4, Mean (SD)",[3]; Male,7.1 (11.54)
same,"Change from Baseline, Q-LES-Q-SF Total at Week 4, Median",[3]; Male,6
same,"Q-LES-Q-SF Total at Week 2, Mean (SD)",[3]; Male,59.5 (12.80)
same,"Q-LES-Q-SF Total at Week 2, Median",[3]; Male,59
same,"Q-LES-Q-SF Total at Week 4, Mean (SD)",[3]; Male,61.5 (12.26)
same,"Q-LES-Q-SF Total at Week 4, Median",[3]; Male,61

# Source: patent US20250360109A1, “COMPOSITIONS AND METHODS FOR TREATING DEPRESSION IN FEMALES” (priority 2022, published 2025)
